These results are taken from patent US8258130B2 (Sanofi, priority 2007, dated 2012).

In one assay the target is human h-PGDS (Homo sapiens, UniProt O60760). Put plainly: Enzyme Immunoassay (EIA) method, inhibition of hematopoietic PGD2 synthase. The class given is biochemical. As to conditions: EIA assay, PGD2 formed from PGH2 by human h-PGDS. The procedure: Assay 2: Enzyme Immunoassay (EIA) Method
• a. Preparation of 0.1M K2HPO4/KH2PO4 buffer (pH 7.4) • Prepare 0.1 M KH2PO4 from 1M KH2PO4 (Sigma, Cat# P-8709) • Prepare 0.1 M K2HPO4 from powder of K2HPO4 (Fisher, BP363-500) • Mix 0.1 M K2HPO4 with 0.1 M KH2PO4 to adjust pH to 7.4. • b. Preparation of 0.5% γ-globulin • Add 0.1 g of γ-globulin (Sigma, Cat# G-5009) to 20 mL 0.1 M K2HPO4/KH2PO4 buffer (pH 7.4) and make 1-mL/vial aliquots and store in −80° C. • c. Preparation of 100 mM GSH • Add 307 mg of GSH (Sigma, Cat# G-6529) to 10 mL 0.1 M K2HPO4/KH2PO4 buffer (pH 7.4) and store at −80° C. • d. Preparation of Reaction buffer: • 198 mL of 0.1M K2HPO4/KH2PO4 buffer (pH 7.4) • 2 mM GSH—Prepared from 100 mM GSH • 0.4 g Glycerol • 2 mL of 0.5% γ-globulin • Add 0.4 g of glycerol and 2 mL of 0.5% γ-globulin to 198 mL of 0.1 M K2HPO4/KH2PO4 • buffer (pH7.4). • Add 0.4 mL of 100 mM GSH to 19.6 mL reaction buffer before the assay (enough for two 96-well plates). • e. Preparation of FeCl2/citric acid stopping solution: (8 mg/mL FeCl2, 0.1 M citric acid) • Add 40 mg fresh FeCl2 (IGN, Cat# 158046) to 5 mL 0.1 M citric acid (Sigma, Cat# C0759). • f. Preparation of MOX reagent: • 10% EtOH—Add 1 mL of EtOH to 9 mL of ultra pure H2O • Dissolve 0.1 g of methoxyl amine (Cayman, Cat# 400036/) in 10% EtOH (10 mL). • Add 0.82 g of sodium acetate (Cayman, Cat#400037) to MOX solution and dissolve. II. Materials and Method • Dimethylsulfoxide (DMSO; Sigma; Cat# D2650) • Prostaglandin D2-MOX express EIA kit (Caymen Chemical, Catalog No. 500151)
Before the assay, cool down 10 mL of acetone in polypropylene tubes and empty 96 well plates in ice. All the procedures except compound dilution are performed on ice.
• 1. Dilute compound in DMSO
• 2. Dilute 2 μL of each above concentration of compound to 38 μL of reaction buffer in 96-well plates and mix. IV. Enzyme and Substrate Solution Preparation • 1 Preparation of 0.39 ng/μL enzyme solution (0.35 ng/μL at final after compound addition). • Mix 4 μL of 4 mg/mL human h-PGDS with 396 μL of reaction buffer (to give enzyme concentration 40 μg/mL). Add 46.8 μL of 40 μg/mL h-PGDS to 4.753 mL of reaction buffer to give a total volume of 4.8 mL • 2. Preparation of Substrate Solution (PGH2): Add 0.375 mL of 0.1 mg/mL of PGH2 to 1.625 mL acetone. V. Enzyme Reaction: • 1. Add 60 μL of enzyme solution to compound well and positive control (without compound) in U-bottom polypropylene plate on ice. • 2. Add 60 μL of reaction buffer and 6.6 μL of 5% DMSO in reaction buffer into negative control wells in the plate. • 3. Add 6.6 μL of diluted compound in reaction buffer to the compound wells and mix. • 4. Add 6.6 μL of 5% DMSO in reaction buffer to the positive control well. • 5. Incubate the plate in ice for at least 30 min. • 6. Add 20 μL of substrate (PGH2) solution to compound, negative and positive control wells in the U-bottom 96 well plate on ice. • 7. Dry the plate in cold room for about 25-28 min. • 8. Pipette 45 μL of enzyme solution (above) into 96-wells with dried PGH2 and mix 3 times. Incubate on the ice for 1 min. • 9. Add 45 μL of FeCl2 solution into each wells and mix. • 10. Add 90 μL of MOX solution and mix. • 11. Incubate for 30 min at 60° C. • 12. Dilute the samples 2500× with EIA buffer. VI. EIA Assay • Perform the assay according to the procedure in EIA kit provided by Cayman. Total PGD2 levels (pg/mL) were determined in the samples by EIA kits (Caymen Chemical, Catalog No. 500151) Calculate Amount of PGD2 as Below • Calculated % Positive control according to the equation below; % Positive control=(Compound value−Negative control)/(Positive value−Negative control value)×100. […]

The test system of the next assay is guinea pig. As to conditions: guinea pig model; cited from earlier work.
A further assay relates to rat. As to conditions: rat model; cited from earlier work.
The test system of the next assay is PGDS. Conditions: cited from earlier work.

Chain of human h-PGDS (O60760 whole entry): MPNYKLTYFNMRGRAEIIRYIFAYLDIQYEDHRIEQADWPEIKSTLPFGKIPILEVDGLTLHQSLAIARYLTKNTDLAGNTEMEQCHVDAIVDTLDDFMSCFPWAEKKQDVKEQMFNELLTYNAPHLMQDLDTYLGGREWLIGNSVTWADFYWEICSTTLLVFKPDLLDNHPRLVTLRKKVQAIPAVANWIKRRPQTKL

As for `Cc1nc(-c2cccc(F)c2)ncc1C(=O)NN(c1ccccc1)c1ccccc1` [Example 190, 2-(3-Fluoro-phenyl)-4-methyl-pyrimidine-5-carboxylic acid N′,N′-diphenyl-hydrazide], the IC50 against human h-PGDS came out at 16 nM.
In turn, `CCc1cn(NC(=O)c2cnc(-c3cccc(F)c3)nc2C)c2cnccc12` [Example 195, 2-(3-Fluoro-phenyl)-4-methyl-pyrimidine-5-carboxylic acid (3-ethyl-pyrrolo[2,3c]pyridin-1-yl)-amide] gave a concentration for half-maximal inhibition (IC50) against human h-PGDS of 7 nM.
In turn, `Cc1nc(-c2cccc(F)c2)ncc1C(=O)Nn1cc(C)c2ncccc21` [Example 197, 2-(3-Fluoro-phenyl)-4-methyl-pyrimidine-5-carboxylic acid (3-methyl-pyrrolo [32-b]pyridin-1-yl)-amide] came in with a half-inhibitory concentration (IC50) on human h-PGDS of 2 nM.
On the same count and under the same terms, the same measure for `Cc1cn(NC(=O)c2cnc(-c3ccccn3)nc2C(F)(F)F)c2ccc(F)cc12` [Example 209, 2-Pyridin-2-yl-4-trifluoromethyl-pyrimidine-5-carboxylic acid (5-fluoro-3-methyl-indol-1-yl)-amide]: 8 nM; for `O=C(NN1CCOc2ccc(F)cc21)c1cnc(-c2cccc(F)c2)nc1` [Example 211, 2-(3-Fluoro-phenyl)-pyrimidine-5-carboxylic acid (6-fluoro-2,3-dihydro-1,4-benzoxazin-4-yl)-amide]: 12 nM.
Regarding `O=C(NN1CCOc2ccc(F)cc21)c1cnc(-c2ccccc2)nc1` [Example 212, 2-Phenyl-pyrimidine-5-carboxylic acid (6-fluoro-2,3-dihydro-1,4-benzoxazin-4-yl)-amide], at human h-PGDS, the half-maximal inhibitory concentration (IC50) is 21 nM.
Still for that read-out and setting: for `Cc1nc(-c2cccc[n+]2[O-])ncc1C(=O)Nn1cc(C)c2cc(F)ccc21` [Example 225, 4-Methyl-2-(1-oxy-pyridin-2-yl)-pyrimidin-5-carboxylic acid (5-fluoro-3-methyl-indol-1-yl)-amide] the value was 851 nM; for `Cc1cn(NC(=O)c2cnc(-c3cccc(C(F)F)c3)nc2)c2ccc(F)cc12` [Example 226, 2-(3-Difluoromethyl-phenyl)-pyrimidine-5-carboxylic acid (5-fluoro-3-methyl-indol-1-yl)-amide], 17 nM; for `Cc1cn(NC(=O)c2cnc(-c3cccc(C(F)(F)F)c3)nc2)c2ccc(F)cc12` [Example 227, 2-(3-Trifluoromethyl-phenyl)-pyrimidine-5-carboxylic acid (5-fluoro-3-methyl-indol-1-yl)-amide], 262 nM.
For `c1ccc(C(OC2CCN(CCCc3nn[nH]n3)CC2)c2ccccc2)cc1` [HQL-79], the antiasthmatic effect entry in the assay with guinea pig and in the assay with rat was “antiasthmatic” in each case. Also, the PGDS inhibition result with PGDS is recorded as “weak PGDS inhibitor”.
